The values that follow are results of earlier work, collected in PubChem BioAssay AID1259410 (Chemical Carcinogenesis Research Information System (CCRIS), 2018).

For this data set, the system named is rodent tumor promotion studies, tumor incidence. Kind of data set: CCRIS tumor promotion studies. The text has this:
The CCRIS database contains chemical records with carcinogenicity, mutagenicity, tumor promotion, and tumor inhibition test results. It was developed by the National Cancer Institute (NCI). Data are derived from studies cited in primary journals, current awareness tools, NCI reports, and other sources. Test results have been reviewed by experts in carcinogenesis and mutagenesis.
CCRIS provides historical information from the years 1985 - 2011. It is no longer updated.
This is an archive assay for CCRIS tumor promotion studies.

Setting [1] is: Carcinogen: 7,12-DIMETHYLBENZ(A)ANTHRACENE, Doses [Carcinogen]: TOP, Route [Carcinogen]: DERMAL, Route [Promoter]: DERMAL, Species: MOUSE, Strain/Sex: FEMALE.

Turning to `S=C=NCCc1ccccc1`, the outcome (Carcinogen: DIETHYLNITROSAMINE, 55-18-5, N-BUTYL-N-(4-HYDROXYBUTYL)NITROSAMINE, 3817-11-6, Carcinogen: DIETHYLNITROSAMINE, 55-18-5, N-BUTYL-N-(4-HYDROXYBUTYL)NITROSAMINE, 3817-11-6, Doses [Carcinogen]: 200 MG/KG DEN ONCE THEN 0.05% BBN IN DRINKING WATER FOR 4 WK, Doses [Promoter]: 0, 0.1% IN DIET FOR 32 WKS BEGINNING 3 D POST CARCINOGEN TREATMENT (STUDY DURATION:36 WK), Route [Carcinogen]: INTRAPERITONEAL, ORAL, Route [Promoter]: ORAL, Species: RAT, Strain/Sex: F344/MALE) was “urinary bladder: carcinoma”.

For the compound `NC[C@@H]1O[C@H](O[C@H]2[C@@H](O)[C@H](O[C@@H]3[C@@H](O)[C@H](N)C[C@H](N)[C@H]3O[C@H]3O[C@H](CN)[C@@H](O)[C@H](O)[C@H]3N)O[C@@H]2CO)[C@H](N)[C@@H](O)[C@@H]1O`, under “Carcinogen: AZOXYMETHANE, 25843-45-2, Doses [Carcinogen]: 8 MG/KG 1/WK FOR 8 WK, Doses [Promoter]: 0, 100, 200 PPM IN DRINKING WATER BEGINNING 2 WK PRIOR TO CARCINOGEN TREATMENT AND CONTINUING FOR DURATION OF STUDY (STU, Doses [Promoter]: 0, 100, 200 PPM IN DRINKING WATER BEGINNING 2 WK PRIOR TO CARCINOGEN TREATMENT AND CONTINUING FOR DURATION OF STUDY (STU, Route [Carcinogen]: SUBCUTANEOUS, Route [Promoter]: ORAL, Species: RAT, Strain/Sex: F344/FEMALE”, the outcome is reported as “colon: adenocarcinoma”. For `C=CC1CC=CCC1` (configuration not stated), the outcome (Carcinogen: 7,12-Dimethylbenz(a)anthracene, 57-97-6, Doses [Carcinogen]: 100 ug once in sesame oil, administered 4 mo after vinylcyclohexene diepoxide dosing, Doses [Promoter]: 160 mg/kg bw for 25 days, administered daily in sesame oil, study duration 3 or 5 months, Route [Carcinogen]: Directly on ovary, Route [Promoter]: Intraperitoneal, Species: Rat, Strain/Sex: Fischer 344/Female) is reported as “ovary: tumors (non-neoplastic cystic ovaries also observed)”. For the compound `CC/C(=C(/CC)c1ccc(O)cc1)c1ccc(O)cc1`, the outcome runs as follows: (Carcinogen: IRRADIATION, Doses [Carcinogen]: 260 CGY GAMMA RAYS AT DAY 20 OF PREGNANCY, Doses [Promoter]: 0, 0.376 UG/D RELEASED FROM PELLET IMPLANTED AFTER NURSING DISCONTINUED, PELLET REPLACED EVERY 8 WK (STUDY DURATION: 1 Y, Route [Carcinogen]: DERMAL, Route [Promoter]: IMPLANT, Species: RAT, Strain/Sex: WISTAR/FEMALE) “mammary gland: tumor”; (Carcinogen: Sodium arsenite, 7781-46-5, Doses [Carcinogen]: 0, 85 ppm to dams on gestational days 8-18, Doses [Promoter]: 2 ug on days 1, 2, 3, 4, and 5 of life, study duration for pups 90 wks, Route [Carcinogen]: Drinking water, days 8-18 of gestation (dams), Route [Promoter]: Subcutaneous (to offspring), Species: Mouse, Strain/Sex: C3H/HeNCr, (25 Male and female offspring/Group of dams exposed to sodium arsenite)) “males: urinary bladder: tumors, liver: tumors females: urogenital tumors”; (Carcinogen: URETHANE, 51-79-6, Doses [Carcinogen]: 500 MG/KG BW ONCE (STUDY DURATION: 19 WK), Doses [Promoter]: 5 MG/KG BW 1X/WK FOR 18 WK BEGINNING 1 WK POST LAST CARCINOGEN DOSE (STUDY DURATION: 19 WK), Route [Carcinogen]: INTRAPERITONEAL, Route [Promoter]: INTRAMUSCULAR, Species: MOUSE, Strain/Sex: KUNMING/FEMALE) “liver: tumor”. For `CC(C)(Oc1ccc(Cl)cc1)C(=O)O`, where the note is “Carcinogen: Diethylnitrosamine (DEN), 55-18-5, Doses [Carcinogen]: 30 mg/kg, single injection 12 d before initial administration of clofibrate, Doses [Promoter]: 0.5% in diet for up to 12 or 20 mo, Route [Carcinogen]: Intraperitoneal, Route [Promoter]: Oral, Species: Rat, Strain/Sex: F344/Male (175 divided into 4 groups, Vehicle control, DEN, DEN + clofibrate, and clofibrate)”, the outcome is reported as “liver: den injection accelerated the appearance of tumors without detectably mod”. In the case of `CC(=O)O[C@]1(C(C)=O)CC[C@H]2[C@@H]3C[C@H](C)C4=CC(=O)CC[C@]4(C)[C@H]3CC[C@@]21C`, the outcome was “mammary gland: tumor” (Carcinogen: 7,12-DIMETHYLBENZ[A]ANTHRACENE, 57-97-6, Doses [Carcinogen]: 1 MG IN 0.1 ML COTTONSEED OIL 1/WK AT WKS 9,10,12 AND 13 OF AGE, Doses [Promoter]: 0, 20 MG EACH IN 2 PELLETS IMPLANTED IN THE INTERSCAPULAR AREA AT 6 WK OF AGE (STUDY DURATION: 15 MO), Route [Carcinogen]: GAVAGE, Route [Promoter]: SUBCUTANEOUS IMPLANT, Species: MOUSE, Strain/Sex: CD2F1/FEMALE); “mammary gland: carcinoma” (Carcinogen: METHYLNITROSOUREA, 684-93-5, Doses [Carcinogen]: 50 MG/KG BW ONCE, Doses [Promoter]: 0, 40 MG DEPOT EVERY 3 MO BEGINNING 1 WK POST CARCINOGEN DOSE (STUDY DURATION: 9 MO), Route [Carcinogen]: INTRAPERITONEAL, Route [Promoter]: SUBCUTANEOUS, Species: MOUSE, Strain/Sex: BALB/FEMALE); “mammary gland: carcinoma” (Carcinogen: METHYLNITROSOUREA, 684-93-5, Doses [Carcinogen]: 50 MG/KG BW ONCE, Doses [Promoter]: 0, 40 MG DEPOT EVERY 3 MO BEGINNING 1 WK PRIOR TO CARCINOGEN DOSE (STUDY DURATION: 9 MO), Route [Carcinogen]: INTRAPERITONEAL, Route [Promoter]: SUBCUTANEOUS, Species: MOUSE, Strain/Sex: BALB/FEMALE). With `ClC(Cl)(Cl)Cl`, the outcome is given as “liver” (Carcinogen: 3'-METHYL-4-DIMETHYLAMINOAZOBENZENE, Doses [Carcinogen]: DIET, Route [Carcinogen]: ORAL, Species: RAT, Strain/Sex: FEMALE); “liver: tumor” (Carcinogen: (+/-)-TRANS-7,8-DIHYDROBENZO[A]PYRENE-7,8-DIOL, 61443-57-0, Doses [Carcinogen]: 1 UG CO-ADMINISTERED WITH PROMOTER DOSE, Doses [Promoter]: 1 UG INJECTED INTO NEWLY HATCHED SAC-FRY CO-ADMINISTERED WITH CARCINOGEN DOSE (STUDY DURATION: 9 MO), Route [Carcinogen]: INJECTION, Route [Promoter]: INJECTION, Species: FISH, Strain/Sex: RAINBOW TROUT/MALE,FEMALE); “liver: basophilic carcinoma” (Doses [Carcinogen]: 20 NG/SAC-FRY, Doses [Promoter]: 0, 1 ML/KG AT 21-DAY INTERVALS FOR A TOTAL OF 3 DOSES BEGINNING 25 D POST CARCINOGEN TREATMENT (STUDY DURATION: 3 MO), Route [Carcinogen]: INJECTION, Route [Promoter]: INTRAPERITONEAL, Species: FISH, Strain/Sex: RAINBOW TROUT).

As to `CCCCCCCCCCCCCC1(CC(=O)OC2C(C)C3(O)C(C=C(CO)CC4(O)C(=O)C(C)=CC43)C3C(C)(C)C23OC(C)=O)OCC(C)(C)N1[O]` (configuration not stated), the outcome (Carcinogen: 7,12-DIMETHYLBENZ[A]ANTHRACENE, 57-97-6, Doses [Carcinogen]: 100 NMOL ONCE, Doses [Promoter]: 0, 5 NMOL 2/WK FOR 36 WK BEGINNING 1 WK POST CARCINOGEN DOSE (STUDY DURATION: 25 WK), Route [Carcinogen]: DERMAL, Route [Promoter]: DERMAL, Species: MOUSE, Strain/Sex: NMRI/FEMALE) is reported as “skin: tumor”. As to `Cc1ccc(O)cc1`, the outcome under setting [1] was “integumentary system (skin)”. In the case of `Clc1c(Cl)c(Cl)c(Cl)c(Cl)c1Cl`, the outcome is listed as “liver: hepatocellular carcinoma” (Carcinogen: DIETHYLNITROSAMINE, 55-18-5, Doses [Carcinogen]: 0.015% IN DRINKING WATER FOR 3 WK, Doses [Promoter]: 0, 0.02% IN DIET (10.5 MG/KG/D) FOR 30 WK BEGINNING 2 WK AFTER LAST CARCINOGEN DOSE (STUDY DURATION: 35 WK), Route [Carcinogen]: ORAL, Route [Promoter]: ORAL, Species: RAT, Strain/Sex: F344/MALE) and “liver: hepatocellular carcinoma” (Carcinogen: DIETHYLNITROSAMINE, 55-18-5, Doses [Carcinogen]: 0.015% IN DRINKING WATER FOR 3 WK, Doses [Promoter]: 0, 0.02% IN DIET (12 MG/KG/D) FOR 30 WK BEGINNING 2 WK AFTER LAST CARCINOGEN DOSE (STUDY DURATION: 35 WK), Route [Carcinogen]: ORAL, Route [Promoter]: ORAL, Species: RAT, Strain/Sex: F344/FEMALE). In the case of `Oc1cccc(Cl)c1`, under setting [1], the outcome is recorded as “integumentary system (skin)”. With `C[C@H](CCC(=O)O)[C@H]1CC[C@H]2[C@@H]3[C@H](O)C[C@@H]4C[C@H](O)CC[C@]4(C)[C@H]3C[C@H](O)[C@]12C`, the outcome was “colon: tumor” (Carcinogen: AZOXYMETHANE, 25843-45-2, Doses [Carcinogen]: 15 MG/KG BW 1/WK FOR 2 WK, Doses [Promoter]: 0, 0.4% IN THE DIET FOR 28 WK BEGINNING 2 WK PRIOR TO CARCINOGEN TREATMENT (STUDY DURATION: 30 WK), Route [Carcinogen]: SUBCUTANEOUS, Route [Promoter]: ORAL, Species: RAT, Strain/Sex: F344/MALE) and “colon” (Doses [Carcinogen]: IR, Route [Carcinogen]: RECTAL, Route [Promoter]: RECTAL, Species: RAT, Strain/Sex: FEMALE). For `CCCCCCCCCCCC(=O)OCCOC[C@@H](OCCO)[C@H]1OC[C@@H](OCCO)[C@H]1OCCO`, the outcome (Carcinogen: 7,12-DIMETHYLBENZ(A)ANTHRACENE, Doses [Carcinogen]: TOP, Route [Carcinogen]: DERMAL, Route [Promoter]: DERMAL, Species: MOUSE, Strain/Sex: MALE) is reported as “integumentary system (skin)”.

As for `Oc1c(Cl)c(Cl)c(O)c(Cl)c1Cl`, the outcome (Carcinogen: 7,12-Dimethylbenzanthracene, 57-97-6, Doses [Carcinogen]: 100 ug in 100 ul acetone once at 7 wks of age, Doses [Promoter]: 100, 500 ug in 100 ul acetone 1 wk after carcinogen, 2 times a wk for 20 or 30 wks, Route [Carcinogen]: Dermal, Route [Promoter]: Dermal, Species: Mouse, Strain/Sex: CD-1/Female) was “skin: tumors (dihydrolipoic acid significantly inhibited tumor incidence and mul”.
